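In this assay, cells in 96-well plates receive the compound at five concentrations for 48 hours. Endpoints are linearly interpolated between the surrounding concentrations. Abbreviation: GI50, concentration required for 50% inhibition of growth. TGI denotes the concentration required for complete inhibition of growth.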

Some test systems named below: NCI-H522 lung; COLO 205 colon; NCI/ADR-RES ovarian; EKVX NSCLC; TK-10 renal; PC-3 prostate; HT29 colon; SF-539 CNS; SN12C renal; A498 renal.
Holding throughout (test): NCI-60 cell line screen, 48 h

Turning to `O=C(CNCc1ccccc1)Oc1c(Cl)c(Cl)c(Cl)c(Cl)c1Cl`, the TGI is 75.9 µM in the test with NCI-H522 lung; 85.9 µM with COLO 205 colon; more than 100 µM with NCI/ADR-RES ovarian; 48.7 µM with EKVX NSCLC; more than 100 µM in the test with TK-10 renal; 48.1 µM in the test with PC-3 prostate. Further, the TGI with HT29 colon was more than 100 µM; in the test on SF-539 CNS it was 95.6 µM; in the test with SN12C renal, more than 100 µM.
`O=C(OCc1ccccc1)C(Cc1ccccc1)N(Cc1ccccc1)Cc1ccccc1` (stereo not given): the TGI in the test with NCI-H522 lung, in the test with COLO 205 colon, in the test with EKVX NSCLC, in the test with TK-10 renal, with A498 renal and in the test with HT29 colon was more than 100 µM in each case. Moreover, the TGI with SF-539 CNS and in the test on SN12C renal was more than 100 µM throughout.
`CCOC(=O)C(C)c1nc2c(Cl)c3ncccc3cc2[nH]c1=O` (stereo not given): the TGI in the test on NCI-H522 lung, in the test on COLO 205 colon, with NCI/ADR-RES ovarian, with EKVX NSCLC, in the test on TK-10 renal and in the test on A498 renal was more than 100 µM in each case. Besides, the TGI in the test with PC-3 prostate, in the test on HT29 colon and with SN12C renal was more than 100 µM in each case.
As for `COC(=O)[C@H](Cc1ccccc1)NC(=O)c1ccc(CNC(=O)/C=C/c2cccc(Oc3ccccc3)c2)cc1`, the TGI in the test on COLO 205 colon is 42.1 µM; in the test on NCI/ADR-RES ovarian, more than 100 µM; with EKVX NSCLC it was more than 100 µM; with TK-10 renal, 92.5 µM; with A498 renal it was 51.7 µM; in the test on PC-3 prostate, more than 100 µM. The results for the TGI in the test on HT29 colon and with SN12C renal were more than 100 µM and 75.9 µM, respectively.
Regarding `CCCCC/C(C=O)=C\c1ccccc1`, the TGI in the test on COLO 205 colon, in the test on NCI/ADR-RES ovarian, with EKVX NSCLC, in the test on TK-10 renal, in the test on A498 renal and in the test with PC-3 prostate was more than 100 µM throughout. For the same compound, the TGI in the test with HT29 colon and in the test on SF-539 CNS was more than 100 µM in each case.
As for `NS(=O)(=O)c1ccc(NC(NC(=O)C(C(F)(F)F)C(F)(F)F)(C(F)(F)F)C(F)(F)F)cc1`, the TGI in the test with NCI-H522 lung, in the test with COLO 205 colon, in the test on NCI/ADR-RES ovarian, with EKVX NSCLC, in the test on TK-10 renal and with PC-3 prostate was more than 100 µM each time. Moreover, the TGI with HT29 colon, with SF-539 CNS and in the test with SN12C renal was more than 100 µM throughout.
`O=C([CH-]C(=O)c1ccccc1)c1ccccc1.O=C([CH-]C(=O)c1ccccc1)c1ccccc1.[O]=[U+2]=[O]`: the GI50 was 2.11 µM in the test on COLO 205 colon; 4.78 µM in the test with EKVX NSCLC; 4.8 µM in the test on TK-10 renal; 2.59 µM in the test with A498 renal; 2.39 µM in the test with HT29 colon; 2.45 µM in the test on SF-539 CNS. Besides, in the test with SN12C renal, the GI50 is 3.33 µM. In addition, the TGI is 4.71 µM in the test on COLO 205 colon; more than 100 µM in the test on EKVX NSCLC; 26.6 µM in the test on TK-10 renal; 7.89 µM in the test with A498 renal; 7.71 µM in the test on HT29 colon; 6.44 µM with SF-539 CNS. Moreover, the TGI in the test with SN12C renal turned out to be 18.7 µM.
Take `CCOC(=O)C1CN(C2CC2)CCC1=O` (stereo not given): the TGI in the test with COLO 205 colon, with NCI/ADR-RES ovarian, in the test on EKVX NSCLC, in the test with TK-10 renal, in the test on PC-3 prostate and in the test with HT29 colon was more than 100 µM in each case. Besides, in the test with SN12C renal, the TGI is more than 100 µM.
For the compound `CC1(C)[C@@H](Cn2cnc3c(Cl)nc(N)nc32)CC[C@@]1(C)CO`, the TGI in the test on COLO 205 colon, with NCI/ADR-RES ovarian, in the test on EKVX NSCLC, in the test with TK-10 renal, in the test with A498 renal and in the test on PC-3 prostate was more than 100 µM throughout. Further, the TGI in the test with SF-539 CNS and in the test with SN12C renal was more than 100 µM throughout.
`COc1cc(C=C2C(=O)NC(=S)NC2=O)cc(OC)c1OC`: the TGI in the test with COLO 205 colon, with NCI/ADR-RES ovarian, with EKVX NSCLC, in the test on TK-10 renal, with PC-3 prostate and with HT29 colon was more than 100 µM in each case. The TGI in the test with SF-539 CNS and in the test with SN12C renal was more than 100 µM in each case.
Take `O=c1n(Cc2ccccc2)c(=O)n2c(=O)n(Cc3ccccc3)c(=O)n12`: the TGI in the test with NCI-H522 lung, with COLO 205 colon, in the test with NCI/ADR-RES ovarian, with TK-10 renal, in the test on A498 renal and in the test with HT29 colon was more than 100 µM in each case. The TGI in the test on SF-539 CNS and in the test with SN12C renal was more than 100 µM each time.
Turning to `c1csc(-c2c3ccc(=[N+]4CCCCC4)cc-3oc3cc(N4CCCCC4)ccc23)c1`, the GI50 in the test on TK-10 renal is 0.15 µM; in the test with A498 renal, 0.0683 µM; with PC-3 prostate, 0.0373 µM; in the test on SF-539 CNS, 0.0446 µM. The TGI was found to be 0.34 µM with TK-10 renal, 0.453 µM in the test on A498 renal, 0.177 µM in the test on PC-3 prostate and 0.195 µM in the test on SF-539 CNS.
In the case of `C[C@]1(S(=O)(=O)c2ccccc2)C[C@H]2N(Cc3ccccc3)[C@@H]1CCC21OCCO1`, the TGI in the test with NCI-H522 lung, in the test with COLO 205 colon, in the test with NCI/ADR-RES ovarian, in the test on EKVX NSCLC, in the test on PC-3 prostate and in the test on HT29 colon was more than 100 µM in each case. In the test on SN12C renal, this compound registered a TGI of more than 100 µM.
On to `CCN1C(=O)N(CC)C2Nn3c(s/c(=C4\C(=O)N(C)c5ccccc54)c3=O)=NC21` (stereo not given), for which the GI50 is 2.98 µM with NCI-H522 lung; 2.26 µM with COLO 205 colon; 1.95 µM with NCI/ADR-RES ovarian; 2.25 µM in the test with EKVX NSCLC; 1.67 µM with A498 renal; 3.52 µM in the test on PC-3 prostate. Further, the GI50 with HT29 colon was 2.33 µM. The TGI in the test with NCI-H522 lung was more than 100 µM; with COLO 205 colon it was more than 100 µM; in the test with NCI/ADR-RES ovarian, more than 100 µM; with EKVX NSCLC, more than 100 µM; with A498 renal, 5.68 µM; in the test with PC-3 prostate, more than 100 µM. Also, the TGI in the test on HT29 colon is more than 100 µM.

For the origin of these results see PubChem BioAssay (NCI).
